Measurements from article PMC8973283, “First-in-Humans Evaluation of a PD-L1–Binding Peptide PET Radiotracer in Non–Small Cell Lung Cancer Patients” (Journal of Nuclear Medicine, 2022).
Blank lines part the entries; values can stand above or below the compound they belong to.

How the values were obtained:
NSCLC lesions [1] = settings: human, in vivo
Description: Patients were injected intravenously with ^68Ga-NOTA-WL12 (1.9–3.7 MBq/kg). To determine the optimal peptide dose required to obtain high-contrast images, an escalated nonradiolabeled WL12 mass dose was coadministered with the imaging agent. The first 2 patients received 0 μg, the next 3 received 5 ug, then 60 ug, and the final group of 3 received 120 μg. […] The first patient underwent a dynamic scan at 6 time points in 1 h. The remaining 8 patients underwent PET/CT at 1 h after injection, and 6 of those were also scanned at 2 h after injection (2 patients were unable to tolerate the full 2-h examination). […] Images were reconstructed with ordered-subset expectation maximization. […] CT data were used to correct the PET images for attenuation. Vital signs, laboratory studies, and electrocardiograms were obtained before injection, during the screening period, and 2 d after PET/CT.
Images were analyzed by 2 experienced nuclear medicine physicians. […] To compare the uptake differences between the liver, spleen, small intestine (SI), and kidney among patients coadministered with different doses of WL12, multisite measurement was applied, and the uptake was calculated as an average of the number of patients corresponding to different dose administrations separately (Supplemental Fig. 3). […]

NSCLC lesions [2] = settings: human, in vivo; cited from earlier work
[3] = Radiation dosimetry in patients (OLINDA/EXM); type: in vivo, human; settings: administered dose 224 ± 37 MBq, n = 4
Description: Data from 4 patients with 120 μg of coinjected WL12 were used for ^68Ga-NOTA-WL12 dosimetry analysis, and the heart contents, lungs, liver, spleen, pancreas, kidneys, uterus, urinary bladder contents, and body remainder were selected as source organs. The volumes of the source organs manually drawn on CT images were calculated, and their mean counts/mL (kBq/mL) were determined from PET images at 1 and 2 h time points. Dosimetry was estimated using OLINDA/EXM software (version 2.0; Hermes Medical Solutions AB). Detailed procedures are provided in the supplemental materials.

[4] = Clinical safety monitoring after PET/CT; type: in vivo, human
Description: Patients were injected intravenously with ^68Ga-NOTA-WL12 (1.9–3.7 MBq/kg). To determine the optimal peptide dose required to obtain high-contrast images, an escalated nonradiolabeled WL12 mass dose was coadministered with the imaging agent. The first 2 patients received 0 μg, the next 3 received 5 ug, then 60 ug, and the final group […] received 120 μg. […] The first patient underwent a dynamic scan at 6 time points in 1 h. The remaining 8 patients underwent PET/CT at 1 h after injection, and 6 of those were also scanned at 2 h after injection (2 patients were unable to tolerate the full 2-h examination). […] Images were reconstructed with ordered-subset expectation maximization. CT reconstruction used a standard method with a 512 × 512 matrix and a layer thickness of 3–5 mm. CT data were used to correct the PET images for attenuation. Vital signs, laboratory studies, and electrocardiograms were obtained before injection, during the screening period, and 2 d after PET/CT.

in vivo = settings: NOD/SCID, mouse, iv, 7.4 MBq (~0.17 ug), total radioactivity
PD-L1 (CHO-hPD-L1 cells) = molecular target: T1, PD-L1 (CHO-hPD-L1 cells) (Homo sapiens, UniProt Q9NZQ7); assay: In vitro cellular uptake in CHO-hPD-L1 versus CHO cells; type: cell-based; settings: CHO-hPD-L1 vs CHO cells
T1 construct: expressed in transfected cells
T1 sequence (Q9NZQ7 19-290): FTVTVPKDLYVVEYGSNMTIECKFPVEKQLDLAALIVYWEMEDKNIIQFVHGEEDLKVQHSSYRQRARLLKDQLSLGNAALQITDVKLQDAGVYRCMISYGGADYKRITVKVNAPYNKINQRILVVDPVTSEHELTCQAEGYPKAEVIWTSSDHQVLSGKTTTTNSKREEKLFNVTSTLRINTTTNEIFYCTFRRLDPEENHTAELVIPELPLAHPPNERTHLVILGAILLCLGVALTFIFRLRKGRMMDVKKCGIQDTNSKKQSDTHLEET
Source text: The Chinese hamster ovary (CHO) cell line was obtained from American Type Culture Collection. A CHO cell line with constitutive PD-L1 expression (CHO-hPD-L1) was generated in our laboratory and described previously ([23]). Details of the cell culture, flow cytometry analysis for PD-L1 expression, and in vitro assays are provided in the supplemental materials.

CHO tumors = assay: Small-animal PET of NOD/SCID mice bearing negative control CHO tumors; type: in vivo
PD-L1 = PD-L1 (Homo sapiens, UniProt Q9NZQ7); assay: First-in-human PET/CT in advanced NSCLC patients: tumor uptake and biodistribution
PD-L1, sequence (Q9NZQ7 19-290): as above
Description: (§1) Patients were injected intravenously with ^68Ga-NOTA-WL12 (1.9–3.7 MBq/kg). To determine the optimal peptide dose required to obtain high-contrast images, an escalated nonradiolabeled WL12 mass dose was coadministered with the imaging agent. The first 2 patients received 0 μg, the next 3 received 5 ug, then 60 ug, and the final group of 3 received 120 μg. […] The first patient underwent a dynamic scan at 6 time points in 1 h. The remaining 8 patients underwent PET/CT at 1 h after injection, and 6 of those were also scanned at 2 h after injection (2 patients were unable to tolerate the full 2-h examination). […] Images were reconstructed with ordered-subset expectation maximization. CT reconstruction used a standard method with a 512 × 512 matrix and a layer thickness of 3–5 mm. CT data were used to correct the PET images for attenuation.
(§2) Images were analyzed by 2 experienced nuclear medicine physicians. The uptake parameters of major organs, tissues, and lesions were obtained to determine the organ biodistribution. SUVlean (SUL) was obtained by standardizing SUV to the body mass, which is less dependent on body habitus ([24]). […] Accordingly, we used SULmean and percentage of injected activity to describe radiopharmaceutical uptake in normal organs. To compare the uptake differences between the liver, spleen, small intestine (SI), and kidney among patients coadministered with different doses of WL12, multisite measurement was applied, and the uptake was calculated as an average of the number of patients corresponding to different dose administrations separately (Supplemental Fig. 3). To analyze normal organ uptake at different time points, 6 patients with 1- and 2-h imaging were involved. The maximum, peak, and mean values of SUV and SUL in biopsied lesions were obtained and used to correlate with PD-L1 TPS. Tumor uptake of ^68Ga-NOTA-WL12 higher than that of blood pool (BP) was considered positive.

[5] = as above; settings: human, iv
Description: as §1, §2

CHO-hPD-L1 tumors = assay: Small-animal PET of NOD/SCID mice bearing CHO-hPD-L1 tumors; settings: 50 μg blocking dose coinjected
[6] = 0, 5, 60, 120 μg WL12 coadministered
[7] = 6 patients with 1- and 2-h imaging
[8] = tumor versus lung, total radioactivity

Compound: OC[C@H]1OC(O)[C@H]([18F])[C@@H](O)[C@@H]1O (stereo partly drawn) [^18F-FDG]
uptake in tumors (NSCLC lesions [1]): intense
radiation dose of conventional PET/CT (NSCLC lesions [2]): 7.0–14 mSv

Effective dose per patient [3]: 4.1 mSv
tissue to tissue ratio at 2 h (in vivo; tumor-to-blood-pool uptake (T/BP)): 4.5 ± 0.2
tissue to tissue ratio at 2 h (in vivo; tumor-to-muscle uptake (T/M)): 19.1 ± 1.2
cellular uptake in vitro (PD-L1 (CHO-hPD-L1 cells)): PD-L1–specific uptake
tumor uptake in negative control CHO tumors (CHO tumors): minimal uptake
change of liver uptake with increasing coadministered precursor dose (PD-L1; [6]): decreased
change of small intestine (SI) uptake with increasing coadministered precursor dose (PD-L1; [6]): increased
change of spleen uptake with increasing coadministered precursor dose (PD-L1; [6]): gradual decrease
kidney and BP uptake at 1 h versus mass of WL12 used (PD-L1; 0, 5, 60, 120 μg WL12 coadministered, 1 h): remained similar
change of SI uptake from 1 to 2 h (PD-L1; [7]): significant increase
change of liver uptake from 1 to 2 h (PD-L1; [7]): significant decrease
organ uptake pattern (biodistribution) (PD-L1; NSCLC patients, PET/CT): mainly observed in the SI and liver
SUV ([5]; blood pool, SUVmax of blood pool (BP), patient 3, before therapy): 1.78 SUV
SUV ([5]; left adrenal metastasis, SUVmax of left adrenal metastasis, patient 9, PD-L1 TPS 80%): 5.47 SUV
SUV ([5]; primary tumor in left lung, SUVmax of primary tumor in left lung, patient 3, PD-L1 TPS 8%): 1.84 SUV
SUV ([5]; primary tumor, SUVmax of primary tumor, patient 9, PD-L1 TPS 80%): 4.87 SUV
SUV ([5]; right sacral metastasis, SUVmax of right sacral metastasis, patient 3, PD-L1 TPS 8%): 0.8 SUV
tissue to tissue ratio at 1 h [5, 8]: 4.45 ± 1.89
tissue to tissue ratio at 2 h [5, 8]: 5.18 ± 2.27
SUV ([5]; tumor, SUVmax of tumor before treatment, patient 1, PD-L1 TPS 8%): 2.21 SUV
SUV ([5]; tumor, SUVmax of tumor before treatment, patient 6, PD-L1 TPS 30%): 3.05 SUV
tumor uptake with coinjected blocking dose (in vivo specificity) (CHO-hPD-L1 tumors): decreased
Compound: CCCC[C@H]1C(=O)N(C)[C@@H](CCCC)C(=O)N[C@@H](CCCNC(=O)CN2CCN(CC(=O)O)CCN(CC(=O)O)CC2)C(=O)N[C@H](C(=O)NCC(N)=O)CSCC(=O)N[C@@H](Cc2ccc(O)cc2)C(=O)N(C)[C@@H](C)C(=O)N[C@@H](CC(N)=O)C(=O)N2CCC[C@H]2C(=O)N[C@@H](Cc2c[nH]cn2)C(=O)N[C@@H](CC(C)C)C(=O)N2C[C@H](O)C[C@H]2C(=O)N[C@@H](Cc2c[nH]c3ccccc23)C(=O)N[C@@H](CO)C(=O)N[C@@H](Cc2cn(C)c3ccccc23)C(=O)N1C [^68Ga-NOTA-WL12, metal not drawn]
changes in vital signs, laboratory studies, electrocardiograms ([4]; before injection, screening period and 2 d after PET/CT): No significant changes
adverse or pharmacologic effects ([4]; nine PET/CT examinations, 1.9–3.7 MBq/kg i.v.): no adverse or clinically detectable pharmacologic effects
route of clearance (PD-L1; NSCLC patients, from uptake in liver, SI and kidneys): primarily through the hepatobiliary system and secondarily through renal excretion
